Measured values published in ChEMBL document CHEMBL1201862, “PubChem BioAssay data set” (2004).
Calls of active or inactive are those of the source.

What was measured:
Type in all cases: functional
[1] = molecular target: Tyrosine-protein kinase JAK2 (Homo sapiens, UniProt O60674);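 note: JAK2 tested as one member of a kinase panel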
[2] = molecular target: RAC-gamma serine/threonine-protein kinase (Homo sapiens, UniProt Q9Y243)
[3] = molecular target: 5'-AMP-activated protein kinase catalytic subunit alpha-1 (Homo sapiens, UniProt Q13131)
[4] = molecular target: Protein kinase C delta type (Homo sapiens, UniProt Q05655)
[5] = molecular target: ALK tyrosine kinase receptor (Homo sapiens, UniProt Q9UM73);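 note: ALK tested as one member of a kinase panel screen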
[6] = molecular target: Proto-oncogene tyrosine-protein kinase receptor Ret (Homo sapiens, UniProt P07949);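 note: measured within a kinome-wide profiling panel, RET as the panel member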
[7] = molecular target: Calcium/calmodulin-dependent protein kinase type II subunit gamma (Homo sapiens, UniProt Q13555)
[8] = molecular target: Tyrosine-protein kinase receptor TYRO3 (Homo sapiens, UniProt Q06418);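 note: TYRO3 value obtained as one member of a kinome-wide profiling panel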
[9] = molecular target: Serine/threonine-protein kinase D3 (Homo sapiens, UniProt O94806);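 note: determined within a kinase panel screen, with PRKCN as the panel member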
[10] = molecular target: Serine/threonine-protein kinase Chk2 (Homo sapiens, UniProt O96017);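 note: CHEK2 entry within a kinome-wide screening panel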
[11] = molecular target: MAP kinase-activated protein kinase 2 (Homo sapiens, UniProt P49137);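 note: measured as one member of a kinome-wide kinase panel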
[12] = molecular target: Cell division cycle 7-related protein kinase (Homo sapiens, UniProt O00311);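 note: value obtained from a kinome-wide kinase panel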
[13] = molecular target: Tyrosine-protein kinase JAK3 (Homo sapiens, UniProt P52333)
[14] = molecular target: Mitogen-activated protein kinase 9 (Homo sapiens, UniProt P45984);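 note: value from a kinome panel profiling assay, MAPK9 panel entry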
[15] = molecular target: Serine/threonine-protein kinase N2 (Homo sapiens, UniProt Q16513)
[16] = molecular target: Serine/threonine-protein kinase TAO1 (Homo sapiens, UniProt Q7L7X3)
[17] = molecular target: Testis-specific serine/threonine-protein kinase 1 (Homo sapiens, UniProt Q9BXA7)
[18] = molecular target: Homeodomain-interacting protein kinase 2 (Homo sapiens, UniProt Q9H2X6);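 note: measured within a kinome-wide kinase profiling panel, HIPK2 being one panel member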
[19] = molecular target: MAP/microtubule affinity-regulating kinase 3 (Homo sapiens, UniProt P27448);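 note: MARK3 affinity measured as one member of a kinome panel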
[20] = molecular target: Mitogen-activated protein kinase 13 (Homo sapiens, UniProt O15264)
[21] = molecular target: Proto-oncogene tyrosine-protein kinase Src (Homo sapiens, UniProt P12931);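 note: SRC entry within a kinome-wide kinase profiling panel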
[22] = molecular target: Dual specificity tyrosine-phosphorylation-regulated kinase 3 (Homo sapiens, UniProt O43781);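 note: measured as one member of a broad kinase panel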
[23] = molecular target: Hepatocyte growth factor receptor (Homo sapiens, UniProt P08581);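 note: kinase panel profiling across the kinome, with MET as the panel member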
[24] = molecular target: Receptor tyrosine-protein kinase erbB-2 (Homo sapiens, UniProt P04626); assay: Navigating the Kinome. Panel member name: ERBB2
[25] = molecular target: Serine/threonine-protein kinase Chk1 (Homo sapiens, UniProt O14757);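 note: measured as one member of a kinome-wide kinase profiling panel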
[26] = molecular target: MAP kinase-interacting serine/threonine-protein kinase 2 (Homo sapiens, UniProt Q9HBH9)
[27] = molecular target: Calcium/calmodulin-dependent protein kinase type II subunit beta (Homo sapiens, UniProt Q13554)
[28] = molecular target: Protein kinase C iota type (Homo sapiens, UniProt P41743);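 note: measured within a kinome-wide kinase panel, PRKCI as panel member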
[29] = molecular target: Protein-tyrosine kinase 6 (Homo sapiens, UniProt Q13882)
[30] = molecular target: Maternal embryonic leucine zipper kinase (Homo sapiens, UniProt Q14680)
[31] = molecular target: RAC-alpha serine/threonine-protein kinase (Homo sapiens, UniProt P31749);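 note: AKT1 affinity measured as one member of a kinome-wide kinase profiling panel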
[32] = molecular target: Rho-associated protein kinase 1 (Homo sapiens, UniProt Q13464);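 note: measured within a broad kinome-wide panel profiling many kinases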
[33] = molecular target: Tyrosine-protein kinase Fyn (Homo sapiens, UniProt P06241)
[34] = molecular target: Homeodomain-interacting protein kinase 4 (Homo sapiens, UniProt Q8NE63)
[35] = molecular target: Cyclin-dependent kinase 1 (Homo sapiens, UniProt P06493);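 note: Kinome-wide panel profiling, with the target listed as panel member CDC2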
[36] = molecular target: 3-phosphoinositide-dependent protein kinase 1 (Homo sapiens, UniProt O15530);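 note: value comes from the Navigating the Kinome panel, PDPK1 member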
[37] = molecular target: Serine/threonine-protein kinase DCLK1 (Homo sapiens, UniProt O15075);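 note: affinity for DCLK1 (listed as DCAMKL1) measured as one member of a kinome-wide kinase profiling panel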
[38] = molecular target: Serine/threonine-protein kinase Nek2 (Homo sapiens, UniProt P51955)
[39] = molecular target: Cyclin-dependent kinase 7 (Homo sapiens, UniProt P50613);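 note: value comes from a kinome-wide kinase profiling panel in which CDK7 is one member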
[40] = molecular target: BDNF/NT-3 growth factors receptor (Homo sapiens, UniProt Q16620);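 note: NTRK2 measured as one member of a broad kinome-wide kinase profiling panel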
[41] = molecular target: Dual specificity protein kinase CLK4 (Homo sapiens, UniProt Q9HAZ1)
[42] = molecular target: Lymphokine-activated killer T-cell-originated protein kinase (Homo sapiens, UniProt Q96KB5);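 note: value comes from a kinase panel screen in which TOPK was one of the panel members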
[43] = molecular target: Macrophage colony-stimulating factor 1 receptor (Homo sapiens, UniProt P07333);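 note: value comes from the Navigating the Kinome screening panel, CSF1R member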
[44] = molecular target: Serine/threonine-protein kinase BRSK1 (Homo sapiens, UniProt Q8TDC3);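 note: measured within a kinome-wide kinase panel, with the target listed as KIAA1811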
[45] = molecular target: Dual specificity tyrosine-phosphorylation-regulated kinase 1A (Homo sapiens, UniProt Q13627);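 note: measured against DYRK1A as one member of a broad kinome profiling panel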
[46] = molecular target: Tyrosine-protein kinase FRK (Homo sapiens, UniProt P42685);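 note: FRK tested as one member of a kinome panel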

Receptor tyrosine-protein kinase erbB-2, sequence (P04626 whole entry): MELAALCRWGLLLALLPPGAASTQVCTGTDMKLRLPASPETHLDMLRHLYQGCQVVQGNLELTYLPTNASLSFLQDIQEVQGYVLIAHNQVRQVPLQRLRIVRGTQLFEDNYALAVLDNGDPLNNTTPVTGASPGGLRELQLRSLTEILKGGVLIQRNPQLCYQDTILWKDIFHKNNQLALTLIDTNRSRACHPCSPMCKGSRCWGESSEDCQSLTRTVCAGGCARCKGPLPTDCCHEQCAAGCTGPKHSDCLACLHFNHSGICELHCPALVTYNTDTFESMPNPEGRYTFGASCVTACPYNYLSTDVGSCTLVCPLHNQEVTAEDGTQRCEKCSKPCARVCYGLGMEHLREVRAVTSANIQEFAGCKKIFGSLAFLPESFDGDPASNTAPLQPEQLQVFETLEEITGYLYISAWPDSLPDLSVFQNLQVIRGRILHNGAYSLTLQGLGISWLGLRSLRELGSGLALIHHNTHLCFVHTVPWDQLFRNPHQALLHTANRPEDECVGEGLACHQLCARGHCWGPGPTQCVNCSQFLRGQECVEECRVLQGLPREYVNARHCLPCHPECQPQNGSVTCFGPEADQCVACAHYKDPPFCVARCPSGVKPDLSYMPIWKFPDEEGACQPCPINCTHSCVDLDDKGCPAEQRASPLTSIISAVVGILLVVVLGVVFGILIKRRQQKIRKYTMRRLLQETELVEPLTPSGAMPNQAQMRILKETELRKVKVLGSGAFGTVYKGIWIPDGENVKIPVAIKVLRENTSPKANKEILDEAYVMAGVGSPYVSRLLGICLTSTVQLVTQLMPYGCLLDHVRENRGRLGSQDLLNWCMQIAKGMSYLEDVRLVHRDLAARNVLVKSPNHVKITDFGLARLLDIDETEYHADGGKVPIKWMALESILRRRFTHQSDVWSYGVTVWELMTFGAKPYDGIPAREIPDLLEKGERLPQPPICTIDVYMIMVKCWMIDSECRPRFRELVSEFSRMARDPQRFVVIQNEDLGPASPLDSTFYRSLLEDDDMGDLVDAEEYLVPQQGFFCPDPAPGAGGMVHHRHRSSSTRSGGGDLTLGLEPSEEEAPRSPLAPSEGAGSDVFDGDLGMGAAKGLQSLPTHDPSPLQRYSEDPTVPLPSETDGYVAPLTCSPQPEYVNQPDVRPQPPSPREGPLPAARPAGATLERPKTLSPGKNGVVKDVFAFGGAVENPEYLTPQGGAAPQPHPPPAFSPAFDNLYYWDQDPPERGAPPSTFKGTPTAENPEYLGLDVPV
Protein kinase C delta type, sequence (Q05655 whole entry): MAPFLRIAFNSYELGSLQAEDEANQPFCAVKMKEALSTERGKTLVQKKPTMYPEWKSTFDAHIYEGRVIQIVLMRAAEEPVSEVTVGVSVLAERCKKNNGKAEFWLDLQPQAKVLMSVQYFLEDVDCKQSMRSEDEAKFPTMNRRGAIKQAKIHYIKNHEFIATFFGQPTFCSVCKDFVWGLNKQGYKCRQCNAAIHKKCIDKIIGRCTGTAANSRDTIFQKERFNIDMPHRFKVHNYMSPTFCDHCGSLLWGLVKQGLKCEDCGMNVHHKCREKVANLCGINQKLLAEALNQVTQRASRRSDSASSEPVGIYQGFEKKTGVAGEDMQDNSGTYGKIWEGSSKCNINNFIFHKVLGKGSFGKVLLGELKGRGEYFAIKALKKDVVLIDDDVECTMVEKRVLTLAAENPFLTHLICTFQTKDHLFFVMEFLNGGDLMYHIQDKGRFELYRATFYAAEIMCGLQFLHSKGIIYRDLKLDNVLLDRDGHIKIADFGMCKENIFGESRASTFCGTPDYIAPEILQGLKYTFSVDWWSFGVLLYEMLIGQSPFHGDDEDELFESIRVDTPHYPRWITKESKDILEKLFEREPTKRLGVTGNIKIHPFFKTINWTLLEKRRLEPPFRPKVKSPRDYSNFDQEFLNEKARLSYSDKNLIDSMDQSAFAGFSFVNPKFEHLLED
Macrophage colony-stimulating factor 1 receptor, sequence (P07333 whole entry): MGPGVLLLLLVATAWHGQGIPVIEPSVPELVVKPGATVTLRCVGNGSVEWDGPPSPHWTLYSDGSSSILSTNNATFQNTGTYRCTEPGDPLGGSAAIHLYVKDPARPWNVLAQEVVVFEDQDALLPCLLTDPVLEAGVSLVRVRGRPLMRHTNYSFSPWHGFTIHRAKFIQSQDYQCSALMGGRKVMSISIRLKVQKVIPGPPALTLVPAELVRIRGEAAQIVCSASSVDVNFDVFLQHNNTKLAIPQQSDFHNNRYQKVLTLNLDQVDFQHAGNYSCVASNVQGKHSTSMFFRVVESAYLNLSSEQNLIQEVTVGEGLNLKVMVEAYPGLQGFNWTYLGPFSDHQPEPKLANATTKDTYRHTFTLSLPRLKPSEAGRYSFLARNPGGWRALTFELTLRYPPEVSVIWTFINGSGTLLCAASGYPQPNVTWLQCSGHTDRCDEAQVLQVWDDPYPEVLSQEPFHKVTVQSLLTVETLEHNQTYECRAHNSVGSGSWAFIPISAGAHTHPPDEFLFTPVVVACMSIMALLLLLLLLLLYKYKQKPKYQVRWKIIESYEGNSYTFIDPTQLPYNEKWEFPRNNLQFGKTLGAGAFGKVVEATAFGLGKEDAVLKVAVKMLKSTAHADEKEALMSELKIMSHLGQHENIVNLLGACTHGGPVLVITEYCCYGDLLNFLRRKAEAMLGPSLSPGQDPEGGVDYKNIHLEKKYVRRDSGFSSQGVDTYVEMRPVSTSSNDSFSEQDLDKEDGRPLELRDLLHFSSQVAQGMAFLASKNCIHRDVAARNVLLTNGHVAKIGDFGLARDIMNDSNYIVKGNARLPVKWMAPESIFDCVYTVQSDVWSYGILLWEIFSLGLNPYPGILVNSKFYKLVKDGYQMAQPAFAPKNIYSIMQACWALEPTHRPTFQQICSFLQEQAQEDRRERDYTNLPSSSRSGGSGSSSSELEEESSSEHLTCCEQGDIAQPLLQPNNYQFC
5'-AMP-activated protein kinase catalytic subunit alpha-1, sequence (Q13131 whole entry): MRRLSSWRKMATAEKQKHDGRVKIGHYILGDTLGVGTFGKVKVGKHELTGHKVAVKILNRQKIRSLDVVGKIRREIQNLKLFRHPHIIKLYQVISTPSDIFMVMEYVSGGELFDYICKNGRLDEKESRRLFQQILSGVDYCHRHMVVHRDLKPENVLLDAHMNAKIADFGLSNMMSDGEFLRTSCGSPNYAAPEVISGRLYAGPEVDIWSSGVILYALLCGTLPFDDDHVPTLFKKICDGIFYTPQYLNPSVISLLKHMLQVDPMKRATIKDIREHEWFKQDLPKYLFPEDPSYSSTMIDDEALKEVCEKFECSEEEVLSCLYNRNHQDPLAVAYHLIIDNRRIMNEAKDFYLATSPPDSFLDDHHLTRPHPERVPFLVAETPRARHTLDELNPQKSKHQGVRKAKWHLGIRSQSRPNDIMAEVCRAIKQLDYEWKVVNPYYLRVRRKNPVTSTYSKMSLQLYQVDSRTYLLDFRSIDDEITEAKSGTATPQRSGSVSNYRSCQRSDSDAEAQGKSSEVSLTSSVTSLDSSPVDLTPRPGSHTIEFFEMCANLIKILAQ
MAP kinase-activated protein kinase 2, sequence (P49137 whole entry): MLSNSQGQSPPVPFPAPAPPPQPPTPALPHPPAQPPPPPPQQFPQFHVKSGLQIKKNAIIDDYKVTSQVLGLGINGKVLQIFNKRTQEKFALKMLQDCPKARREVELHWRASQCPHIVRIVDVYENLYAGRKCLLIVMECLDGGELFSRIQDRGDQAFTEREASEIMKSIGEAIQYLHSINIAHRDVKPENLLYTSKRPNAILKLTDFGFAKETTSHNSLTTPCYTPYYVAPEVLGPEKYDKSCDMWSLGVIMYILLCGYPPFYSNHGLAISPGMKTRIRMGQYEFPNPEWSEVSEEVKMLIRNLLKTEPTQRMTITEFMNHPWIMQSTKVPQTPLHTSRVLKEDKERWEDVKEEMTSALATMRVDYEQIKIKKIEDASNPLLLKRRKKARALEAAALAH
Homeodomain-interacting protein kinase 4, sequence (Q8NE63 whole entry): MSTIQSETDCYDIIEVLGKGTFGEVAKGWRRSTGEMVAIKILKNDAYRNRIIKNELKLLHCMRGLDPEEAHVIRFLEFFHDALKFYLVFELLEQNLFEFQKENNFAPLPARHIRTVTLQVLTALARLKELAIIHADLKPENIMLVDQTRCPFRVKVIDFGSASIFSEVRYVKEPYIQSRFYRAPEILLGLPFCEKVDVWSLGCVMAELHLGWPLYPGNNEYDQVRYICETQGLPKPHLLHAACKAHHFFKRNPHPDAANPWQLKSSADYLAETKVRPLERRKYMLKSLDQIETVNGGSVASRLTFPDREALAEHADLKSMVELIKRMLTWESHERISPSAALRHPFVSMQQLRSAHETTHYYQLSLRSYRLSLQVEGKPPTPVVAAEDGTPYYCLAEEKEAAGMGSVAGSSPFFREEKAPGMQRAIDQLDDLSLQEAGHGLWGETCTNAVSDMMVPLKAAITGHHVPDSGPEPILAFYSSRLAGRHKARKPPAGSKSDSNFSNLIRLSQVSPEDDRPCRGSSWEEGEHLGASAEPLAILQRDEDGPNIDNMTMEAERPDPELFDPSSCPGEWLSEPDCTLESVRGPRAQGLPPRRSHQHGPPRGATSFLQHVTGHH
MAP kinase-interacting serine/threonine-protein kinase 2, sequence (Q9HBH9 whole entry): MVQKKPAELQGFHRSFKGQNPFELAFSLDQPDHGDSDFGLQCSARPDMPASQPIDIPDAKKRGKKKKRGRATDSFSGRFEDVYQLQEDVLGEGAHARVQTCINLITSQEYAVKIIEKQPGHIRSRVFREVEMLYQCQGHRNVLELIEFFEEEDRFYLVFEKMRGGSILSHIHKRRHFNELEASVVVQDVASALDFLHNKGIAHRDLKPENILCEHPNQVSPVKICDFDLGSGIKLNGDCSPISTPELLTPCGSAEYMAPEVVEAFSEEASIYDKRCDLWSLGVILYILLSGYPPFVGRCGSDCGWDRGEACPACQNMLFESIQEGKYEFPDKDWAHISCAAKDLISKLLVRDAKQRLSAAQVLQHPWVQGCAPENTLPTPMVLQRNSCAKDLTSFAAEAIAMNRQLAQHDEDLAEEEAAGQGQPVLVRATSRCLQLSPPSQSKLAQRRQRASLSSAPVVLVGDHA

- Ki [1]: 794 nM (active)
- Ki [2]: 501 nM (active)
- Ki [3]: 794 nM (active)
- Ki [4]: 200 nM (active)
- Ki [5]: > 1260 nM (inactive)
- Ki [6]: 251 nM (active)
- Ki [7]: 79.4 nM (active)
- Ki [8]: > 2000 nM (inactive)
- Ki [9]: 79.4 nM (active)
- Ki [10]: > 1580 nM (inactive)
- Ki [11]: > 7940 nM (inactive)
- Ki [12]: 10 nM (active)
- Ki [13]: 1260 nM (active)
- Ki [14]: > 3980 nM (inactive)
- Ki [15]: 251 nM (active)
- Ki [16]: 3980 nM (active)
- Ki [17]: 15.8 nM (active)
- Ki [18]: 25.1 nM (active)
- Ki [19]: 158 nM (active)
- Ki [20]: 398 nM (active)
- Ki [21]: > 2000 nM (inactive)
- Ki [22]: 126 nM (active)
- Ki [23]: > 3160 nM (inactive)
- Ki [24]: > 1580 nM (inactive)
- Ki [25]: 1260 nM (active)
- Ki [26]: 126 nM (active)
- Ki [27]: 316 nM (active)
- Ki [28]: 200 nM (active)
- Ki [29]: > 2510 nM (inactive)
- Ki [30]: 100 nM (active)
- Ki [31]: 631 nM (active)
- Ki [32]: 5.01 nM (active)
- Ki [33]: > 794 nM (inactive)
- Ki [34]: 1580 nM (active)
- Ki [35]: 158 nM (active)
- Ki [36]: 316 nM (active)
- Ki [37]: 3160 nM (active)
- Ki [38]: > 10000 nM (inactive)
- Ki [39]: 6.31 nM (active)
- Ki [40]: > 5010 nM (inactive)
- Ki [41]: 6.31 nM (active)
- Ki [43]: > 2510 nM (inactive)
- Ki [44]: 5010 nM (active)
- Ki [45]: 7.94 nM (active)
- Ki [46]: 1580 nM (active)
Structure (SMILES): NC1CCCCC1Nc1nccc(-c2c[nH]c3ncccc23)n1 (stereo unspecified)
- Ki [42]: 631 nM (active)
